Results on 25 compounds are retold here after patent US20050288323A1, “Octahydro-indolizine and quinolizine and hexahydro-pyrrolizine” (priority 2000, published 2005).

The term Ki denotes the dissociation constant of the complex between target and ligand, obtained from inhibition or displacement. The low end stands for tighter binding, the high end for weaker binding. As a reminder, the melting point is the temperature of the solid-liquid transition.

One series deals with T1, human histamine H3 receptor (Homo sapiens, UniProt Q9Y5N1).
T1 construct: One microgram of supercoiled H3 receptor cDNA was added to the cells and mixed; expressed in transfected cells; membranes
T1 sequence (Q9Y5N1 whole entry): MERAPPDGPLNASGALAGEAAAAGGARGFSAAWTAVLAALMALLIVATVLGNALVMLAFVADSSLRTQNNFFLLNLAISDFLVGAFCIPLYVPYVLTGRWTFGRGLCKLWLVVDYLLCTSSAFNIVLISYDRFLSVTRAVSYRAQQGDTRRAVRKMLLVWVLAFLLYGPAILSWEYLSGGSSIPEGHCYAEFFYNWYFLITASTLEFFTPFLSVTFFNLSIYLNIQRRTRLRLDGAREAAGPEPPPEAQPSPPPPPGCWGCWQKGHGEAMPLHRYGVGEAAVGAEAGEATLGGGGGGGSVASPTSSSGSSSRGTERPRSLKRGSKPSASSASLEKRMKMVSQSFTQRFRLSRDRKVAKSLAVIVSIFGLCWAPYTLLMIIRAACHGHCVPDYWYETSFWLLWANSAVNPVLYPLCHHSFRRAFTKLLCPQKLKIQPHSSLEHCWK
In words: [3H]-N-methylhistamine binding. The settings on record: Table 1; [3H]-N-methylhistamine binding. An outline of the steps: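 Membranes from SK-N-MC cells stably transfected with human H3 receptor, incubated 45 min at 25° C. with 0.8 nM [3H]-N-methylhistamine in Tris/EDTA pH 7.4. Filtration and scintillation counting; 10 μM histamine defined non-specific binding. Ki from IC50 via Cheng-Prusoff (Kd 800 pM, [L] 800 pM).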
`CN(C)CCCOc1ccc([C@H]2CC[C@H]3CCCCN32)cc1` (racemic) [Example 17, Dimethyl-{3-[4-(octahydro-indolizin-3-yl)-phenoxy]-propyl}-amine]: the affinity corresponds to a Ki of 10 nM. The compound `c1ccc(Oc2ccc([C@H]3CC[C@H]4CCCCN43)cc2)cc1` (racemic) [Example 11] displayed a Ki of 400 nM. This Ki lies about 40-fold higher than the previous one.

The same series, now with this note: Table 2; [3H]-N-methylhistamine binding.
As to `O=c1[nH]c(Sc2ccc([C@H]3CC[C@H]4CCCCN43)cc2)nc2ccccc12` (racemic) [Example 33], the affinity corresponds to a Ki of 163 nM.

Still in this series, the particulars now being: Table 3; [3H]-N-methylhistamine binding.
The compound `c1cc(-c2ccc([C@H]3CC[C@H]4CCCCN43)cc2)cs1` (racemic) [Example 49] registered a Ki of 503 nM.

Still in this series, the particulars now being: Table 5; [3H]-N-methylhistamine binding.
For `c1cncc(CNc2ccc([C@H]3CC[C@H]4CCCCN43)cc2)c1` (racemic) [Example 127], the affinity, expressed as Ki, was 589 nM. `c1cc(CNc2ccc([C@H]3CC[C@H]4CCCCN43)cc2)ccn1` (racemic) [Example 131] registered a Ki of 511 nM.

Take `c1ccc(CNc2ccc([C@H]3CC[C@H]4CCCCN43)cc2)nc1` (racemic) [Example 128]: the Ki was found to be 1340 nM.

Still in this series, the particulars now being: [3H]-N-methylhistamine 0.8 nM, membranes of H3 receptor-expressing SK-N-MC cells.
`c1cc(Sc2ccc(C3CCC4CCCCN43)cc2)ccn1` (centres unmarked) [Example 136, Octahydro-3-[4-(4-pyridinylthio)phenyl]indolizine]: the Ki stood at 7.5 nM. `CN(C)CCCOc1ccc([C@H]2CC[C@H]3CCCCN32)cc1` (racemic) [Example 17, Dimethyl-{3-[4-(octahydro-indolizin-3-yl)-phenoxy]-propyl}-amine] returned an inhibition constant Ki of 9.5 nM. The compound `c1cc(C2CC3CCCCN3C2)ccc1OCCCN1CCCCC1` (stereo not drawn) [Example 69, syn-2-[4-(3-Piperidinylpropanoxy)phenyl]octahydroindolizine] showed an inhibition constant Ki of 0.2 nM. As to `O=Cc1ccc([C@H]2CC[C@H]3CCCCN32)cc1` (racemic) [trans-3-(4-Formylphenyl)octahydroindolizine], affinity was put at a Ki of 587 nM. For `OC(c1ccncc1)c1ccc([C@H]2CC[C@H]3CCCCN32)cc1` (stereo partly drawn) [Example 24, trans-3-[4-(4-Pyridylmethan-1-ol)phenyl]octahydroindolizine], the Ki stood at 82 nM. Same read-out and setting: in the case of `CC(C)(C)OC(=O)N1CCC(Nc2ccc([C@H]3CC[C@H]4CCCCN43)cc2)CC1` (racemic) [Example 100] it was 517 nM; in that of `CN(C(=O)CCCCN1CCCCC1)c1ccc([C@H]2CC[C@H]3CCCCN32)cc1` (racemic) [Example 113, trans-3-[4-(N-Methyl-N-5-piperidylpentanamido)phenyl]octahydroindolizine], 63 nM.

In turn, `CS(=O)(=O)N(c1cccc(COc2ccc([C@H]3CC[C@H]4CCCCN43)cc2)c1)S(C)(=O)=O` (racemic) [Example 82, trans-3-[4-(3-bis-Methansulfonaminobenzyloxy)phenyl]octahydroindolizine] registered a Ki of 128 nM. Compound `c1cc([C@@H]2CCC[C@@H]3CCCN32)ccc1OCCCN1CCCCC1` (racemic) [Example 64, 5-[4-(3-Piperidinylpropoxy)phenyl]octahydroindolizine] showed a Ki of 0.7 nM. `c1cc([C@@H]2CC[C@@H]3CCCCN32)ccc1OCCCN1CCCCC1` [Example 94, (S, S)-3-(4-(3-Piperidinylpropoxy)phenyl)octahydroindolizine] registered an inhibition constant (Ki) of 0.06 nM. With `CS(=O)(=O)Nc1cccc(COc2ccc([C@H]3CC[C@H]4CCCCN43)cc2)c1` (racemic) [Example 83, trans-3-[4-(3-Methansulfonaminobenzyloxy)phenyl]octahydroindolizine], the Ki worked out at 308 nM. Against the preceding compound, the Ki is about 5100-fold higher.

In turn, `CN(c1ccc([C@H]2CC[C@H]3CCCCN32)cc1)C1CCN(S(C)(=O)=O)CC1` (racemic) [Example 103] yielded a Ki of 98 nM. `FC(F)(F)CN1CCCCC1CCOc1ccc([C@H]2CC[C@H]3CCCCN32)cc1` (mixture of isomers) [Example 89, trans-3-{4-[2,2′-(N-Trifluoroethylpiperidinyl)ethoxy]phenyl}octahydroindolizine] came in with an inhibition constant (Ki) of 47 nM. In turn, `Brc1ccc([C@H]2CC[C@H]3CCCCN32)cc1` (racemic) [Example 1, trans-3-(4-bromophenyl)octahydroindolizine] gave a Ki of 325 nM. In turn, `N=C1NC(=N)/C(=C/c2ccc([C@H]3CC[C@H]4CCCCN43)cc2)S1` (relative stereo) [Example 46, trans-3-[4-(4-Methylene-1,3-thiazolidine-2,4-diimine)phenyl]octahydroindolizine] gave a Ki of 330 nM.

The compound `C#Cc1ccc([C@H]2CC[C@H]3CCCCN32)cc1` (racemic) [Example 75, trans-3-(4-acetylenephenyl)octahydroindolizine] yielded an inhibitory constant (Ki) of 1100 nM. The same measure, in the same setting: in the case of `OC(c1ccc(Cl)cc1)c1ccc(C2CCC3CCCCN32)cc1` (mixture of isomers) [Example 123, trans-3-{4-[(4-Chlorophenyl)methan-1-ol]phenyl}octahydroindolizine] it was 803 nM. On the same count and under the same terms, next, `CS(=O)(=O)Nc1ccc(Oc2ccc([C@H]3CC[C@H]4CCCCN43)cc2)cc1` (racemic) [Example 79, trans-3-[4-(4-Methansulfonaminophenoxy)phenyl]octahydroindolizine]: 46 nM.

Tested on in a further series: not given
Experiment: not given
Conditions: not given
In turn, `Brc1cccc([C@H]2CC[C@H]3CCCCN32)c1` (racemic) gave a melting point of 195 to 198 °C.
